Values of other authors as cited in article PMC8453901, “GLPG1205, a GPR84 Modulator: Safety, Pharmacokinetics, and Pharmacodynamics in Healthy Subjects” (Clinical Pharmacology in Drug Development, 2021).

Tested on: histological lesions in the lung
Design: method as in PMID 29454750
Conditions: bleomycin-induced mouse model of pulmonary fibrosis, compared with vehicle; cited from earlier work

For `CCCCCc1cccc(CC(=O)O)c1` [PBI‐4050], the “reduction of histological lesions in the lung” value is given as 47%.
